The values that follow are results of earlier work, collected in patent publication US20250367333A1, “LIPID NANOPARTICLE FOR RADIATION THERAPY, MANUFACTURING METHOD, COMBINATION COMPOSITION, AND KIT” (KABUSHIKI KAISHA TOSHIBA, priority 2024, published 2025).

Each structure is given as a SMILES string.

For the data set the following is noted: radioactive material.

Consider `[At]` [astatine], for which the half-life entry is “approximately 7 hours”.
